Assay results as given in patent publication US20220305003A1, “METHODS OF TREATING CANCER WITH AN INHIBITOR OF ZNF827” (CHILDREN'S MEDICAL RESEARCH INSTITUTE, priority 2019, published 2022).

Each compound was assayed on panel of 660 cell lines (assay: Drug sensitivity (Sanger GDSC IC50) versus ZNF827 gene expression). Conditions: natural log of the IC50 from Sanger GDSC v17.3; low log2(TPM) <1 vs normal; Nemenyi test, adjusted p-value<0.05.
Format: cell-based
Experimental: ZNF827 gene expression for the 660 cell lines was plotted on a histogram and grouped by gene expression level, represented as log2(TPM), into “low” (<1), “normal” (>1, <5) and “high” (>5). […] The Nemenyi statistical test was used to test for significant differences between “low” and “normal” ZNF827 expression groups for drug sensitivity for each compound. P-values were then corrected for multiple testing using FDR correction. […] All statistical analysis was performed in R (version 3.6.0), using the “stats” (version 3.6.0) and “PMCMR” (version 4.3) libraries.

Compound | drug sensitivity in cell lines with low ZNF827 compared to cell lines with normal ZNF827 expression
O=c1[nH]c2ccccc2n1C1CCN(Cc2ccc(-c3nc4cc5[nH]cnc5cc4nc3-c3ccccc3)cc2)CC1 [AKT inhibitor VIII] | Increased sensitivity
Cc1ccc(NC(=O)c2cccc(C(C)(C)C#N)c2)cc1Nc1ccc2ncn(C)c(=O)c2c1 [AZ628] | Increased sensitivity
C=C(c1ccc(C(=O)O)cc1)c1cc2c(cc1C)C(C)(C)CCC2(C)C [Bexarotene] | Increased sensitivity
O=C(NOCC1CC1)c1ccc(F)c(F)c1Nc1ccc(I)cc1Cl [CI-1040] | Increased sensitivity
Cc1ccc(-c2c(C(=O)CF)n(CCCO)c3ncnc(N)c23)cc1 [FMK] | Increased sensitivity
Nc1[nH]nc2nnc(-c3c(-c4ccccc4)nn4ccccc34)cc12 [FR-180204] | Increased sensitivity
Cn1cc(/C=C2\C(=O)Nc3cccnc32)c2ccccc21 [GW441756] | Increased sensitivity
CCNC(=O)C[C@@H]1N=C(c2ccc(Cl)cc2)c2cc(OC)ccc2-n2c(C)nnc21 [I-BET-762] | Increased sensitivity
Cc1ccc(NC(=O)c2ccc(CN3CCN(C)CC3)cc2)cc1Nc1nccc(-c2cccnc2)n1 [Imatinib] | Increased sensitivity
O=C(N[C@@H](COc1ccc2[nH]c(=O)[nH]c2c1)c1ccccc1)c1cccn(Cc2ccc(F)c(F)c2)c1=O [KIN001-244] | Increased sensitivity
COc1cc(C(=O)NC2CCN(C)CC2)ccc1Nc1ncc2c(n1)N(C1CCCC1)C(C)CC(=O)N2C (centres unmarked) [NPK76-II-72-1] | Increased sensitivity
Cc1ccc(C(=O)Nc2cccc(C(F)(F)F)c2)cc1Nc1nc(-c2cccnc2)nc2c1cnn2C [NVP-BHG712] | Increased sensitivity
Cc1cn(-c2cc(NC(=O)c3ccc(C)c(Nc4nccc(-c5cccnc5)n4)c3)cc(C(F)(F)F)c2)cn1 [Nilotinib] | Increased sensitivity
O=C(Nc1ccc(OC(F)(F)F)cc1)c1sccc1NCc1ccnc2ccccc12 [OSI-930] | Increased sensitivity
O=C(NOC[C@H](O)CO)c1ccc(F)c(F)c1Nc1ccc(I)cc1F [PD0325901] | Increased sensitivity
[H]/N=C(/N)N/C(=N/[H])NCCc1ccccc1 [Phenformin] | Increased sensitivity

Compound | drug sensitivity in cell lines with low ZNF827 compared to cell lines with normal ZNF827 expression
CC1(C)CC(=O)c2c(C(F)(F)F)nn(-c3ccc(C(N)=O)c(N[C@H]4CC[C@H](O)CC4)c3)c2C1 [SNX-2112] | Increased sensitivity
CCN(CC)CCNC(=O)c1c(C)[nH]c(/C=C2\C(=O)Nc3ccc(F)cc32)c1C.O=C(O)C[C@H](O)C(=O)O [Sunitib] | Increased sensitivity
O=S(=O)(c1ccccc1)N(CC(F)(F)F)c1ccc(C(O)(C(F)(F)F)C(F)(F)F)cc1 [T0901317] | Increased sensitivity
CCc1nc(-c2cccc(C)c2)c(-c2ccnc(NC(=O)c3ccccc3)c2)s1 [TAK-715] | Increased sensitivity
CN(C)C/C=C/C(=O)Nc1ccc(C(=O)Nc2cccc(Nc3ncc(Cl)c(-c4c[nH]c5ccccc45)n3)c2)cc1 [THZ-2-102-1] | Increased sensitivity
CC/C(=C(\c1ccccc1)c1ccc(OCCN(C)C)cc1)c1ccccc1 [Tamoxifen] | Increased sensitivity
CC1=C(/C=C/C(C)=C/C=C/C(C)=C/C(=O)O)C(C)(C)CCC1 [Tretinoin] | Increased sensitivity
CCCC(=O)OCc1ccc(OC(=O)/C=C(C)/C=C/C=C(C)/C=C/C2=C(C)CCCC2(C)C)cc1 [VNLG-124] | Increased sensitivity
NC(=O)c1ccc(N(C(N)=O)c2c(F)cccc2F)nc1-c1ccc(F)cc1F [VX-702] | Increased sensitivity
O=C(CCCCCCC(=O)Nc1ccccc1)NO [Vorinostat] | Increased sensitivity
KIN001-236 | Increased sensitivity
KIN001-260 | Increased sensitivity
THZ-2-49 | Increased sensitivity
TL-1-85 | Increased sensitivity
TL-2-105 | Increased sensitivity

What follows are compounds tested on ATR-CHK1 pathway (assay: Western blot of ATR downstream effectors (p-CHK1 S345, p-RPA2 S33, pCHK2)). Conditions: U-2 OS; agent alone (topotecan 2 μg/mL 24 hours, aphidicolin 1 μM 20 hours, or siRNA knockdown in unchallenged cells).
Format: cell-based
Experimental: Protein was extracted from 10^6 cells per sample by vigorous pipetting and incubation at room temperature for 30 minutes in 100 μL of EDTA-free 4× LDS buffer (106 mM Tris-Cl, 141 mM Tris-Base, 40% Glycerol, 2% LDS, 0.075% SERVA Blue G50) supplemented with 2.5% Benzonase® nuclease 25 U/μL (Novagen, Merck Millipore) and 2% beta-mercaptoethanol (Sigma). Following protein extraction, all samples were denatured at 90° C. for 15 minutes before resolving on NuPAGE® Novex® 4-12% Bis-Tris Mini Gels (Invitrogen) with 1×10^5 cells (10 μL) loaded per lane in NuPAGE® MES SDS running buffer (Invitrogen) at 200 V for 50 minutes. Gels were transferred onto a PVDF membrane (Immobilon-P, Millipore) in transfer buffer (190 mM glycine, 25 mM Tris and 10% methanol) at 100 V for 60 minutes. Membranes were stained with Ponceau-S for 30 minutes, de-stained then blocked for 1 hour at room temperature in 5% skim milk dissolved in PBS with 0.1% Tween-20 (PBST) or TBS with 0.1% Tween-20 (TBST) for phosphorylated proteins. Membranes were cut into appropriate segments based on the size markers, with each segment incubated with antibodies for proteins of interest diluted in 0.5% skim milk in PBST/TBST or 5% BSA overnight at 4° C. (Refer to Table 4 for the list of antibodies). Blots were then washed for 3×5 minutes in PBST/TBST followed by incubation for 1 hour at room temperature with appropriate secondary antibodies (See Table 5) diluted 1:5000 in 0.5% skim milk or 5% BSA in PBST/TBST. Blots were washed for 3×5 minutes in PBST/TBST before incubation with SuperSignal West Pico Chemiluminescent Substrate (ThermoFisher Scientific) for 5 minutes at room temperature. Blots were then exposed to a Luminescent Image Analyser (LAS-4000, Fujifilm).
To investigate the precise function of ZNF827 in the ATR pathway, the effect of ZNF827 depletion on the downstream effectors of ATR was examined. To activate ATR, U-2 OS cells were treated with DNA damage and replication stress inducing agents topotecan 2 μg/mL for 24 hours or aphidicolin 1 μM for 20 hours. […] Phosphorylation of CHK2 was not affected by ZNF827 depletion, further supporting that the role of ZNF827 in DNA damage and repair is independent of ATM (FIG. 6d).

Compound | phosphorylation of CHK1 S345
C[C@@]1(CO)[C@H](O)CC[C@@]2(C)[C@H]1CC[C@H]1C[C@@H]3C[C@@]12CC[C@]3(O)CO [aphidicolin] | became phosphorylated at S345
